The values below come from ChEMBL document CHEMBL2424642, “Heterocyclic glucocorticoid receptor modulators with a 2,2-dimethyl-3-phenyl-N-(thiazol or thiadiazol-2-yl)propanamide core” (Bioorg Med Chem Lett, 2013).

Data set [1] addresses T1, Glucocorticoid receptor (Homo sapiens, UniProt P04150).
T1 sequence (P04150 whole entry): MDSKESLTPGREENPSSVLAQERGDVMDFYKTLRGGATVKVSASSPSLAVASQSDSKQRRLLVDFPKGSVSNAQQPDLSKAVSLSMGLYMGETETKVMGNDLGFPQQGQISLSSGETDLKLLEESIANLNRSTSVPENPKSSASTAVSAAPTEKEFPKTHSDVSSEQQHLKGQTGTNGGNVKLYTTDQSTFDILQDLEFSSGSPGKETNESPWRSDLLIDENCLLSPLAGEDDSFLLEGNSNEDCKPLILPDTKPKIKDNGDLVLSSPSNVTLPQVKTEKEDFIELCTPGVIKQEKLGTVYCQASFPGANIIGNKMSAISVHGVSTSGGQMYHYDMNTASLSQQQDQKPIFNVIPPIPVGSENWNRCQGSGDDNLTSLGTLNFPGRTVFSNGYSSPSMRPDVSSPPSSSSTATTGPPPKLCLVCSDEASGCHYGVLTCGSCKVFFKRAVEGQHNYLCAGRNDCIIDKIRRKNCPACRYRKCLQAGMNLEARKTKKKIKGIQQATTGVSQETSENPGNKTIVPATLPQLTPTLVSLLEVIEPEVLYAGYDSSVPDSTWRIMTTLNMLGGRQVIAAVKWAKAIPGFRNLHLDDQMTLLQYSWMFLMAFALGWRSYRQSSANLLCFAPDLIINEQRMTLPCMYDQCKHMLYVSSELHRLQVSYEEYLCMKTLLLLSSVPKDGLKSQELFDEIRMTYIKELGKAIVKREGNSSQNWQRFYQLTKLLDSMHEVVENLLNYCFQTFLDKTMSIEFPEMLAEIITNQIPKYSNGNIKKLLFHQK
In words: Transactivation of GR-LBD expressed in human HeLa cells co-expressing GAL4-DBD by luciferase reporter gene assay. The data set is classed as cell-based. In general terms: In a reporter assay the amount or activity of a reporter protein is the signal.

Data set [2] deals with T1, Glucocorticoid receptor. In words: (§1) Transactivation of GR-LBD expressed in human HeLa cells co-expressing GAL4-DBD by luciferase reporter gene assayrelative to dexamethasone. The data set is classed as cell-based. As to conditions: hela.
Data set [3] concerns the target T1, Glucocorticoid receptor. In words: Transrepression of glucocorticoid receptor in human A549 cells assessed as inhibition of PMA-induced AP-1 activity by luciferase reporter gene assay. The class given is cell-based.
Data set [4] deals with T1, Glucocorticoid receptor. In words: Binding affinity to glucocorticoid receptor-LBD (unknown origin) by fluorescence polarization assay. For orientation: In fluorescence polarisation assays a small probe gives low polarisation when free and higher when bound to something large.
Data set [5] deals with T2, Glucocorticoid receptor (GR-LBD) (Homo sapiens, UniProt P04150).
T2 sequence (P04150 whole entry): T1 sequence (P04150 whole entry)
The data set is described as §1. As to conditions: HeLa cells expressing GR-LBD and GAL4-DBD, read-out: Efficacy. The class given is cell-based.

In data set [6] the target is T3, Glucocorticoid receptor (Homo sapiens) (UniProt P04150).
T3 sequence (whole entry): T1 sequence (P04150 whole entry)
In words: Transrepression of glucocorticoid receptor in human A549 cells assessed as inhibition of PMA-induced AP-1 activity by luciferase reporter gene assay relative to dexamethasone. The class given is cell-based.

Broadly, the EC50 is the concentration at which the effect is half-maximal. A word on the Ki: it is the dissociation constant of the complex between target and ligand, obtained from inhibition or displacement. As for `CC(C)(C(=O)Nc1nncs1)C(c1ccccc1)c1ccn2c(-c3ccccc3)ncc2c1` (centres undefined) [listing 1 of 2 here], the EC50 in data set [1] came to 2 µM; in data set [3], 0.899 µM. Also, the Efficacy in data set [2] amounted to 30%. In data set [4], this molecule registered a Ki of 0.003 µM.
In the case of `CC(C)(C(=O)Nc1nccs1)C(c1ccccc1)c1ccc2c(-c3ccc(F)cc3F)ncn2c1` (centres undefined), the EC50 came out at 0.078 µM in data set [1] and 0.014 µM in data set [3]. For the same molecule, in data set [5], the Emax came to 73%. In addition, in data set [6], the Efficacy stood at 75%. Besides, the Ki in data set [4] came to 0.002 µM.
Turning to `CC(C)(C(=O)Nc1nncs1)C(c1ccccc1)c1ccc2c(-c3cccc(C#N)c3)ncn2c1` (centres undefined), the EC50 was > 10 µM in data set [1] and 1.35 µM in data set [3]. The Efficacy in data set [6] turned out to be 32%. The Ki in data set [4] turned out to be 0.004 µM.
On to `CC(C)(C(=O)Nc1nncs1)C(c1ccccc1)c1ccc2c(-c3ccc(F)cc3)ncn2c1` (single isomer, unassigned; enantiomer 2) [listing 1 of 2 here], for which, in data set [6], the Efficacy worked out at 72%.
Take `CC(C)(C(=O)Nc1nncs1)C(c1ccccc1)c1ccc2c(-c3ccc(F)cc3)ncn2c1` (single isomer, unassigned; enantiomer 2) [listing 2 of 2 here]: the EC50 in data set [1] was found to be 0.118 µM; in data set [3], 0.024 µM. The molecule further registered an Efficacy in data set [2] of 65%. For the same molecule, in data set [4], the Ki came to 0.002 µM.
As for `CC(C)(C(=O)Nc1nccs1)C(c1ccccc1)c1cc(-c2ccc(F)cc2)c2ncccc2c1` (centres undefined), the EC50 in data set [3] was > 10 µM. This molecule also registered a Ki in data set [4] of 0.285 µM.
For `CC(C)(C(=O)Nc1nncs1)C(c1ccccc1)c1ccn2c(-c3ccccc3)ncc2c1` (single isomer, unassigned; enantiomer 1) [listing 1 of 2 here], the EC50 is > 10 µM in data set [1] and 1.12 µM in data set [3]. The same molecule had a Ki in data set [4] of 0.005 µM.
Take `CC(C)(C(=O)Nc1nccs1)C(c1ccccc1)c1ccc2cncn2c1` (centres undefined): in data set [3], the EC50 was > 10 µM.
As for `CC(C)(C(=O)Nc1nncs1)C(c1ccccc1)c1ccn2c(-c3ccccc3)ncc2c1` (centres undefined) [listing 2 of 2 here], the Efficacy in data set [6] stood at 66%.
Consider `CC(C)(C(=O)Nc1nccs1)C(c1ccccc1)c1ccc2c(-c3ccc(F)cc3)ncn2c1` (single isomer, unassigned; enantiomer 2) [listing 1 of 2 here], for which the EC50 in data set [1] came out at 0.06 µM; in data set [3], 0.006 µM. In data set [2], this molecule displayed an Efficacy of 69%. Further, the Ki in data set [4] was 0.001 µM.
As to `CC(C)(C(=O)Nc1nccs1)C(c1ccccc1)c1ccn2c(-c3ccccc3)ncc2c1` (single isomer, unassigned; enantiomer 1), the EC50 in data set [1] is > 10 µM; in data set [3], > 2.5 µM. The same molecule came in with a Ki in data set [4] of 0.011 µM.
Turning to `CC(C)(C(=O)Nc1nccs1)C(c1ccccc1)c1ccc2c(-c3cccc(C#N)c3)ncn2c1` (centres undefined), the EC50 was > 10 µM in data set [1] and 0.225 µM in data set [3]. The Efficacy in data set [6] is 30%. The molecule also gave a Ki in data set [4] of 0.004 µM.
With `CC(C)(C(=O)Nc1nccs1)C(c1ccccc1)c1ccn2c(-c3ccccc3)ncc2c1` (centres undefined) [listing 1 of 2 here], the Efficacy in data set [6] was found to be 70%.
As to `CC(C)(C(=O)Nc1nncs1)C(c1ccccc1)c1ccc2c(-c3ccc(C#N)cc3)ncn2c1` (centres undefined), the EC50 in data set [1] was > 10 µM; in data set [3] it was 0.14 µM. Further, in data set [6], the Efficacy was 37%. The Ki in data set [4] came out at 0.002 µM.
In the case of `CC(C)(C(=O)Nc1nccs1)C(c1ccccc1)c1ccc2[nH]ccc2c1` (centres undefined), in data set [3], the EC50 came out at 0.23 µM. Moreover, the Efficacy in data set [6] was determined as 61%. For the same molecule, in data set [4], the Ki is 0.007 µM.
Turning to `CC(C)(C(=O)Nc1nccs1)C(c1ccccc1)c1ccc2c(-c3ccc(F)cc3)ncn2c1` (centres undefined) [listing 1 of 2 here], in data set [6], the Efficacy amounted to 66%.
Still for that read-out and setting: next, `CC(C)(C(=O)Nc1nncs1)C(c1ccccc1)c1ccn2c(-c3ccccc3)ncc2c1` (single isomer, unassigned; enantiomer 2) [listing 1 of 2 here]: 61%.
On to `CC(C)(C(=O)Nc1nncs1)C(c1ccccc1)c1ccc2c(-c3ccc(F)cc3)ncn2c1` (centres undefined) [listing 1 of 2 here], for which the EC50 stood at 0.262 µM in data set [1] and 0.036 µM in data set [3]. Further, the Emax in data set [5] was determined as 66%. In data set [4], this molecule registered a Ki of 0.003 µM.
As for `CC(C)(C(=O)Nc1nncs1)C(c1ccccc1)c1cc(-c2ccc(F)cc2)c2ncccc2c1` (centres undefined), the EC50 in data set [3] is > 10 µM. Moreover, the Ki in data set [4] turned out to be 0.196 µM.
As for `CC(C)(C(=O)Nc1nncs1)C(c1ccccc1)c1ccc2c(-c3ccc(F)cc3)ncn2c1` (single isomer, unassigned; enantiomer 1) [listing 1 of 2 here], the results for the EC50 in data set [1] and in data set [3] were > 10 µM and 1.2 µM, respectively. In data set [4], this molecule came in with a Ki of 0.006 µM.
On to `CC(C)(C(=O)Nc1nccs1)C(c1ccccc1)c1ccc2c(-c3ccc(F)cc3)ncn2c1` (single isomer, unassigned; enantiomer 2) [listing 2 of 2 here], for which the Efficacy in data set [6] was 73%.
Still for that read-out and setting: the result for `CC(C)(C(=O)Nc1nncs1)C(c1ccccc1)c1ccc2c(-c3ccc(F)cc3)ncn2c1` (single isomer, unassigned; enantiomer 1) [listing 2 of 2 here] reads 24%.
Regarding `CC(C)(C(=O)Nc1nccs1)C(c1ccccc1)c1ccc2ncccc2c1` (centres undefined), in data set [3], the EC50 was > 10 µM. In data set [4], this molecule gave a Ki of 0.085 µM.
`CC(C)(C(=O)Nc1nccs1)C(c1ccccc1)c1ccn2cncc2c1` (centres undefined): the EC50 in data set [3] is 1.2 µM. The Efficacy in data set [6] is 39%. In data set [4], this molecule displayed a Ki of 0.018 µM.
Consider `CC(C)(C(=O)Nc1nncs1)C(c1ccccc1)c1ccc2c(-c3cccc(CO)c3)ncn2c1` (centres undefined), for which the EC50 in data set [1] is > 10 µM; in data set [3] it was > 5 µM. Moreover, the Ki in data set [4] came to 0.005 µM.
In the case of `CC(C)(C(=O)Nc1nncs1)C(c1ccccc1)c1ccc2c(-c3ccc(F)c(Cl)c3)ncn2c1` (centres undefined), the EC50 is > 10 µM in data set [1] and 0.111 µM in data set [3]. Moreover, the Efficacy in data set [6] is 20%. Besides, in data set [4], the affinity corresponds to a Ki of 0.005 µM.
Regarding `CC(C)(C(=O)Nc1nccs1)C(c1ccccc1)c1ccc2c(ccn2-c2ccc(F)cc2)c1` (centres undefined), in data set [3], the EC50 came out at 0.22 µM. The Efficacy in data set [6] was 60%.
With `CC(C)(C(=O)Nc1nccs1)C(c1ccccc1)c1ccc2c(-c3ccc(F)cc3)ncn2c1` (single isomer, unassigned; enantiomer 1), the EC50 in data set [1] is > 10 µM; in data set [3] it was > 5 µM. In data set [4], the Ki amounted to 0.004 µM.
`CC(C)(C(=O)Nc1nncs1)C(c1ccccc1)c1ccn2c(-c3ccccc3)ncc2c1` (single isomer, unassigned; enantiomer 2) [listing 2 of 2 here]: the EC50 in data set [1] was determined as 0.613 µM; in data set [3] it was 0.254 µM. The Emax in data set [5] is 43%. This molecule displayed a Ki in data set [4] of 0.001 µM.
Taken in the same sequence, the figures for `CC(C)(C(=O)Nc1nccs1)C(c1ccccc1)c1ccc2c(-c3ccc(F)cc3)ncn2c1` (centres undefined) [listing 2 of 2 here] were 0.103 µM, 0.016 µM, 74% and 0.003 µM.
Take `CC(C)(C(=O)Nc1nncs1)C(c1ccccc1)c1ccc2c(-c3ccc(F)cc3F)ncn2c1` (centres undefined): the EC50 in data set [1] is 0.117 µM; in data set [3], 0.015 µM. The Emax in data set [5] amounted to 61%. In data set [6], the Efficacy turned out to be 69%. Moreover, the Ki in data set [4] amounted to 0.001 µM.
With `CC(C)(C(=O)Nc1nccs1)C(c1ccccc1)c1ccn2c(-c3ccccc3)ncc2c1` (centres undefined) [listing 2 of 2 here], the EC50 amounted to 0.36 µM in data set [1] and 0.06 µM in data set [3]. The Emax in data set [5] worked out at 32%. The molecule further showed a Ki in data set [4] of 0.005 µM.
`CC(C)(C(=O)Nc1nccs1)C(c1ccccc1)c1ccc2nncn2c1` (centres undefined): the EC50 in data set [3] was > 10 µM.
As to `CC(C)(C(=O)Nc1nccs1)C(c1ccccc1)c1ccc2cnccc2c1` (centres undefined), in data set [3], the EC50 is > 10 µM. In data set [4], this molecule gave a Ki of 0.015 µM.
In the case of `CC(C)(C(=O)Nc1nncs1)C(c1ccccc1)c1ccc2c(-c3ccc(F)cc3)ncn2c1` (centres undefined) [listing 2 of 2 here], the Efficacy in data set [6] was 68%.
Same read-out and setting: next, `CC(C)(C(=O)Nc1nncs1)C(c1ccccc1)c1ccn2c(-c3ccccc3)ncc2c1` (single isomer, unassigned; enantiomer 1) [listing 2 of 2 here]: 34%.
With `CC(C)(C(=O)Nc1nccs1)C(c1ccccc1)c1ccc2c(-c3ccc(F)c(Cl)c3)ncn2c1` (centres undefined), the figures for the EC50 in data set [1] and in data set [3] were > 10 µM and 0.114 µM, respectively. Further, the Efficacy in data set [6] worked out at 26%. In data set [4], this molecule had a Ki of 0.008 µM.
The like results for `CC(C)(C(=O)Nc1nccs1)C(c1ccccc1)c1ccc2c(-c3ccc(C#N)cc3)ncn2c1` (centres undefined) were, in that order, > 10 µM, 0.089 µM, 37% and 0.004 µM.
